The source of these data is BindingDB's records for doi:10.3109/14756366.2010.616860 (Slovak University of Technology, 2012).

SMILES strings stand for the structures. pIC50: −log10 of the molar value. Values joined by “and” are separate entries in the source; they are usually repeats but may differ in a detail not shown here. Identical values can stand only once. Where only a bound is given, the exact number is not on record here.

Assay in all cases: Enzyme Assay
Common to all, as to settings: pH 8

Assay [1] addresses Urokinase-type plasminogen activator (Homo sapiens, UniProt P00749). Here is the method:
(§1) Data scanning time was set to the 1st and 61st minute after the reaction start. Rutin, esculin, phloridzin and their esters were initially solubilized at a concentration of 10 mM in dimethyl sulphoxide (DMSO) and subsequently incorporated in the reaction mixture to final concentrations in the range of 1-50 μM. Samples were run in triplicate in 96-well plates by MRX microplate reader. Each experiment was performed in triplicate.

Assay [2] addresses Chymotrypsin-like elastase family member 1 (Pig, UniProt P00772). As to the method: as §1
In a further assay the target is Prothrombin (Bos taurus, UniProt P00735). Here is the method: as §1
In another assay the target is T1, Serine protease 1 (Bos taurus, UniProt P00760).
T1 sequence (P00760 whole entry): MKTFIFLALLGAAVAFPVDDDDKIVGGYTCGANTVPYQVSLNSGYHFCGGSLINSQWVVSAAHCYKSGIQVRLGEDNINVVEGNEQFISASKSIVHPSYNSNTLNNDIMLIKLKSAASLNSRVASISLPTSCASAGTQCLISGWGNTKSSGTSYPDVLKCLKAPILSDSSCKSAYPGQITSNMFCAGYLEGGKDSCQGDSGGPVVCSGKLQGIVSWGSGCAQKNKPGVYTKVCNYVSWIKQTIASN
Here is the method: as §1

Sequence of Chymotrypsin-like elastase family member 1 (P00772 whole entry): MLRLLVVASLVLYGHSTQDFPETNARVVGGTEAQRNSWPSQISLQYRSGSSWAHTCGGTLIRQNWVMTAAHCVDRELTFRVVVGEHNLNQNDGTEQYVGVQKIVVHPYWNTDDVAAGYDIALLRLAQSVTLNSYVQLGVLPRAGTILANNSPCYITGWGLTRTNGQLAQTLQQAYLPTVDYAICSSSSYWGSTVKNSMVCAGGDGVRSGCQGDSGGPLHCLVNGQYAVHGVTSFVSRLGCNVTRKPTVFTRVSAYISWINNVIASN

Usually pIC50 stands for −log10 of the IC50, conventionally taken in molar units. A low value points to a large IC50. For the molecule `O=c1c(O)c(-c2ccc(O)c(O)c2)oc2cc(O)cc(O)c12` [2-(3,4-dihydroxyphenyl)-3,5,7-trihydroxy-chromone;hydrate], in assay [1], the pIC50 is 4.70.
In the case of `N=C(N)Nc1ccc(C(=O)O)cc1` [4-Guanidinobenzoate], the pIC50 in assay [2] was 3.30; against Prothrombin, 3.40; at Serine protease 1, 3.35; in assay [1], 4.70.
Take `CCCCCCCCCCCC(=O)OCC1OC(Oc2cc3ccc(=O)oc3cc2O)C(O)C(O)C1O` (stereo not given) [Esculin laurate]: the pIC50 is 4.70 in assay [2], 4.22 at Prothrombin, 3.46 on Serine protease 1 and 4.00 in assay [1].
The matching figures for `CCCCCCCCCCCCCC(=O)OCC1OC(Oc2cc3ccc(=O)oc3cc2O)C(O)C(O)C1O` (stereo not given) [Esculin myristate]: 4.60, 4.27, 3.92 and 4.00.
The matching figures for `CCCCCCCCCCCCCCCC(=O)OCC1OC(Oc2cc3ccc(=O)oc3cc2O)C(O)C(O)C1O` (stereo not given) [Esculin palmitate]: 4.52, 4.27, 3.68 and 4.00.
The matching figures for `CCCCCCCCCCCCCCCCCC(=O)OCC1OC(Oc2cc3ccc(=O)oc3cc2O)C(O)C(O)C1O` (stereo not given) [Esculin stearate]: 4.22, 4.28, 4.30 and 4.05.
For `O=c1ccc2cc(OC3OC(CO)C(O)C(O)C3O)c(O)cc2o1` (stereo not given) [Esculin], the pIC50 was 4.00 in assay [2], 3.60 on Prothrombin, 3.82 against Serine protease 1 and 4.60 in assay [1].
Taken in the same sequence, the figures for `CCCCCCCCCCCC(=O)OCC1OC(Oc2cc(O)cc(O)c2C(=O)CCc2ccc(O)cc2)C(O)C(O)C1O` (stereo not given) [Phloridzin laurate] were less than 3.30, 4.15, 4.26 and 5.05.
The matching figures for `CCCCCCCCCCCCCC(=O)OCC1OC(Oc2cc(O)cc(O)c2C(=O)CCc2ccc(O)cc2)C(O)C(O)C1O` (stereo not given) [Phloridzin myristate]: less than 3.30, 4.12, 4.19 and 4.48.
Turning to `CCCCCCCCCCCCCCCC(=O)OCC1OC(Oc2cc(O)cc(O)c2C(=O)CCc2ccc(O)cc2)C(O)C(O)C1O` (stereo not given) [Phloridzin palmitate], the pIC50 in assay [2] was less than 3.30; against Prothrombin it was 4.12; against Serine protease 1, 4.22; in assay [1] it was 4.74.
The matching figures for `CCCCCCCCCCCCCCCCCC(=O)OCC1OC(Oc2cc(O)cc(O)c2C(=O)CCc2ccc(O)cc2)C(O)C(O)C1O` (stereo not given) [Phloridzin stearate]: less than 3.30, 4.19, 3.67 and 4.89.
On to `O=C(CCc1ccc(O)cc1)c1c(O)cc(O)cc1OC1OC(CO)C(O)C(O)C1O` (stereo not given) [Phloridzin], for which the pIC50 was 4.00 in assay [2], 3.49 at Prothrombin, 4.05 against Serine protease 1 and 4.10 in assay [1].
`CCCC(=O)OC1C(C)OC(OCC2OC(Oc3c(-c4ccc(O)c(O)c4)oc4cc(O)cc(O)c4c3=O)C(O)C(O)C2O)C(O)C1O` (stereo not given) [Rutin butyrate]: the pIC50 is less than 3.30 in assay [2], 4.66 against Prothrombin, less than 3.30 on Serine protease 1 and 5.10 in assay [1].
Consider `CCCCCC(=O)OC1C(C)OC(OCC2OC(Oc3c(-c4ccc(O)c(O)c4)oc4cc(O)cc(O)c4c3=O)C(O)C(O)C2O)C(O)C1O` (stereo not given) [Rutin caproate], for which the pIC50 is less than 3.30 in assay [2]; 4.49 on Prothrombin; less than 3.30 at Serine protease 1; 4.85 and 4.70 in assay [1].
Consider `CCCCCCCC(=O)OC1C(C)OC(OCC2OC(Oc3c(-c4ccc(O)c(O)c4)oc4cc(O)cc(O)c4c3=O)C(O)C(O)C2O)C(O)C1O` (stereo not given) [Rutin caprylate], for which the pIC50 in assay [2] is less than 3.30; against Prothrombin, 4.60; against Serine protease 1 it was less than 3.30; in assay [1] it was 4.49.
Turning to `CCCCCCCCCCCC(=O)OC1C(C)OC(OCC2OC(Oc3c(-c4ccc(O)c(O)c4)oc4cc(O)cc(O)c4c3=O)C(O)C(O)C2O)C(O)C1O` (stereo not given) [Rutin laurate], the pIC50 is less than 3.30 in assay [2], 4.85 against Prothrombin, 4.05 on Serine protease 1 and 4.30 in assay [1].
With `CC/C=C\C/C=C\C/C=C\CCCCCCCC(=O)OC1C(C)OC(OCC2OC(Oc3c(-c4ccc(O)c(O)c4)oc4cc(O)cc(O)c4c3=O)C(O)C(O)C2O)C(O)C1O` (stereo not given) [Rutin linolenate], the pIC50 in assay [2] is less than 3.30; against Prothrombin, 5.15; against Serine protease 1 it was 4.30; in assay [1], 4.70.
As for `CCCCCCCCCCCCCC(=O)OC1C(C)OC(OCC2OC(Oc3c(-c4ccc(O)c(O)c4)oc4cc(O)cc(O)c4c3=O)C(O)C(O)C2O)C(O)C1O` (stereo not given) [Rutin myristate], the pIC50 in assay [2] was less than 3.30; at Prothrombin, 5.00; against Serine protease 1, 3.89; in assay [1], 4.82.
The matching figures for `CCCCCCCC/C=C\CCCCCCCC(=O)OC1C(C)OC(OCC2OC(Oc3c(-c4ccc(O)c(O)c4)oc4cc(O)cc(O)c4c3=O)C(O)C(O)C2O)C(O)C1O` (stereo not given) [Rutin oleate]: less than 3.30, 5.05, 4.22 and 4.60.
The matching figures for `CCCCCCCCCCCCCCCC(=O)OC1C(C)OC(OCC2OC(Oc3c(-c4ccc(O)c(O)c4)oc4cc(O)cc(O)c4c3=O)C(O)C(O)C2O)C(O)C1O` (stereo not given) [Rutin palmitate]: less than 3.30, 5.52, 4.40 and 4.82.
Taken in the same sequence, the figures for `CCCCCCCCCCCCCCCCCC(=O)OC1C(C)OC(OCC2OC(Oc3c(-c4ccc(O)c(O)c4)oc4cc(O)cc(O)c4c3=O)C(O)C(O)C2O)C(O)C1O` (stereo not given) [Rutin stearate] were less than 3.30, 5.10, 4.40 and 4.82.
On to `CC1OC(OCC2OC(Oc3c(-c4ccc(O)c(O)c4)oc4cc(O)cc(O)c4c3=O)C(O)C(O)C2O)C(O)C(O)C1O` (stereo not given) [Rutin], for which the pIC50 is 4.00 in assay [2], 4.60 against Prothrombin, 4.40 at Serine protease 1 and 5.22 in assay [1].
